Test results from patent EP4800014A1 (Tuojie Biotech (Shanghai) Co., Ltd., priority 2023, dated 2025).

Legend:
[1] = system: Ovarian cancer cells OVCAR3; assay: Inhibitory activity against ovarian cancer cells (OVCAR3), CellTiter-Glo cell viability; assay type: cell-based; conditions: for IC50: Homo sapiens, OVCAR-3, 120 h, OVCAR3 cells, 2500 cells/well, 5 days with compound, highest concentration 10 µM, Celltiter Glo; for inhibitory activity against OVCAR3 tumor cells compared with Janssen-01: comparison in words with the disclosed compound Janssen-01
Description: Test Example 1. Assay for Inhibitory Activity of Compounds of Present Disclosure Against Ovarian Cancer Cells (OVCAR3)
Ovarian cancer cells OVCAR3 (source: Nanjing Cobioer Biosciences Co., Ltd.) were cultured in an RPMI 1640 culture medium supplemented with 10% FBS in a cell incubator at 37 °C with 5% CO2. On day one, the cells were plated in a 96-well plate at a cell concentration of 2500 cells/well and cultured overnight in an incubator. On day two, the cells were treated with compounds. The highest compound concentration was 10 µM and was diluted 3-fold to obtain 9 concentrations, and the final concentration of DMSO was 0.1%. After the cells were cultured in the incubator for another 5 days, the cell viability was measured using a Celltiter Glo assay kit (Promega) by a method consistent with that provided by the kit. Data were processed using GraphPad Prism 8, and IC50 was calculated. [formula] X: the logarithm of the compound concentration; Y: % inhibition; Bottom: bottom; Top: top; HillSlope: Hill slope. Table 2. The IC50 (nM) of the compounds of the present disclosure against OVCAR3

[2] = target: CDK4/CyclinD1 (Homo sapiens, UniProt P11802); assay: ADP-Glo kinase assay, CDK4; assay type: biochemical; conditions: 16.3 nM CDK4/CyclinD1, 200 µM ATP (Km), 0.2 mg/mL DYRKtide, 120 min; read-out: inhibitory activity (IC50, nM) CDK4
Sequence of CDK4/CyclinD1 (P11802 whole entry, species assumed): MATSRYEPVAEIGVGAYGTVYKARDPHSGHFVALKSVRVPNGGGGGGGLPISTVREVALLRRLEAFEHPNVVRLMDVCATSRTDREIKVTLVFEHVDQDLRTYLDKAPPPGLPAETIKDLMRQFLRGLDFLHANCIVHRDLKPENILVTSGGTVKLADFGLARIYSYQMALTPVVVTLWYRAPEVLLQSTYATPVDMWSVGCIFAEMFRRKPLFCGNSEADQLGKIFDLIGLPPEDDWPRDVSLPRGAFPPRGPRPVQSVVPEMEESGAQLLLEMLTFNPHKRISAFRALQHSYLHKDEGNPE
Sequence of CDK4/CyclinD1 (P24385 whole entry partner, species assumed): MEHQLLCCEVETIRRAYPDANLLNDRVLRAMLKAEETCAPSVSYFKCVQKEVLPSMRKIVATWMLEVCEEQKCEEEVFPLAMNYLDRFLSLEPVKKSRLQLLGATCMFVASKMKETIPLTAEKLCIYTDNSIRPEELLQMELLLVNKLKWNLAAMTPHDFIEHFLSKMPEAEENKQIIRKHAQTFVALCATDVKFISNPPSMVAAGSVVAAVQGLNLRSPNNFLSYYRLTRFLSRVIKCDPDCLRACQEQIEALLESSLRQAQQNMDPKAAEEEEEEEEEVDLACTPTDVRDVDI
Description: (§1) An ADP-Glo kinase assay was used for testing the activity of CDKs. The compounds were diluted in 384-well plates using Echo. The starting concentration was 10 µM and was diluted 3-fold to obtain 10 concentration points, and each concentration was tested in duplicate. The final concentration of DMSO in the assay system was 1%. CDK solutions (final concentrations: 16.5 nM CDK1/CyclinB, 1 nM CDK2/CyclinE1, 16.3 nM CDK4/CyclinD1, 15.7 nM CDK6/CyclinD3, 80 nM CDK7/Cyclin H/MAT1, and 15.3 nM CDK9/Cyclin T1) prepared with assay buffer were added at 2.5 µL, and the enzymes and compounds were pre-incubated at room temperature for 10 min. […] After thorough mixing, the plates were incubated at room temperature (for 120 min for CDK1/4/9 and for 60 min for CDK2/6/7). 4 µL of the ADP-Glo reagent was added, and the plates were incubated at room temperature for 40 min. 8 µL of the kinase assay reagent was added, and the plates were incubated at room temperature for 40 min. Readings were taken using an Envision multimode microplate reader. Data were processed using GraphPad Prism 8, and IC50 was calculated. [formula] X: the logarithm of the compound concentration; Y: % inhibition; Bottom: bottom; Top: top; HillSlope: Hill slope. Table 3. The inhibitory activity (IC50, nM) of the compounds of the present disclosure against CDKs

[3] = target: CDK7/Cyclin H/MAT1 (Homo sapiens, UniProt P50613); assay: ADP-Glo kinase assay, CDK7; assay type: biochemical; conditions: 80 nM CDK7/Cyclin H/MAT1, 70 µM ATP (Km), 0.2 mg/mL MBP, 60 min; read-out: inhibitory activity (IC50, nM) CDK7
Sequence of CDK7/Cyclin H/MAT1 (P50613 whole entry, species assumed): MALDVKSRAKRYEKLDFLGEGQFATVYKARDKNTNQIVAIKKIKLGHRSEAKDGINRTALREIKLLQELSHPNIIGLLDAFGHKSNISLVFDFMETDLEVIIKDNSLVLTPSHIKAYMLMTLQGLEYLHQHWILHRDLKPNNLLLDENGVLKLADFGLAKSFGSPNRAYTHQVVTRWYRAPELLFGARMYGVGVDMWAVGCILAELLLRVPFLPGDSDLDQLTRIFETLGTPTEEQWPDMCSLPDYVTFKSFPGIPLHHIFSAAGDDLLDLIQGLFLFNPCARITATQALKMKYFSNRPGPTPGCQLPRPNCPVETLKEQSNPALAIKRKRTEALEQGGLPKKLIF
Sequence of CDK7/Cyclin H/MAT1 (P51946 whole entry partner, species assumed): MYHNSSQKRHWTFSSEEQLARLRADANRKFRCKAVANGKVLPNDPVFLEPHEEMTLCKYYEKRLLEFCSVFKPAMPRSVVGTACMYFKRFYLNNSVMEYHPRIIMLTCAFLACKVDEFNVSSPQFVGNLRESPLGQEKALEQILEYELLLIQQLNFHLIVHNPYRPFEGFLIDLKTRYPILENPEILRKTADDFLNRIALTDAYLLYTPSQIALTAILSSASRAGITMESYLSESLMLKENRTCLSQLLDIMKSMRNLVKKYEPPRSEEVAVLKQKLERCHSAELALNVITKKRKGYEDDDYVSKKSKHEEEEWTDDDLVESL
Sequence of CDK7/Cyclin H/MAT1 (P51948 whole entry partner, species assumed): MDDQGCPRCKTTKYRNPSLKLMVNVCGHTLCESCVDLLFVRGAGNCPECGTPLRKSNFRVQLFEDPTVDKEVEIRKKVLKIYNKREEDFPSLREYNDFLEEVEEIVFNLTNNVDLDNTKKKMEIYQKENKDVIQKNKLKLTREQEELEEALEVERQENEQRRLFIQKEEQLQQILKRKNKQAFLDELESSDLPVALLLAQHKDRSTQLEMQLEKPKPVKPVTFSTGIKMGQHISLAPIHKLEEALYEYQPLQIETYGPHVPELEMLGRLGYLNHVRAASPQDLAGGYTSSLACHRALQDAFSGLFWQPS
Description: as §1

[4] = target: CDK1/CyclinB (Homo sapiens, UniProt P06493); assay: ADP-Glo kinase assay, CDK1; assay type: biochemical; conditions: 16.5 nM CDK1/CyclinB, 20 µM ATP (Km), 0.1 mg/mL histone H1, 120 min; read-out: inhibitory activity (IC50, nM) CDK1
Sequence of CDK1/CyclinB (P06493 whole entry, species assumed): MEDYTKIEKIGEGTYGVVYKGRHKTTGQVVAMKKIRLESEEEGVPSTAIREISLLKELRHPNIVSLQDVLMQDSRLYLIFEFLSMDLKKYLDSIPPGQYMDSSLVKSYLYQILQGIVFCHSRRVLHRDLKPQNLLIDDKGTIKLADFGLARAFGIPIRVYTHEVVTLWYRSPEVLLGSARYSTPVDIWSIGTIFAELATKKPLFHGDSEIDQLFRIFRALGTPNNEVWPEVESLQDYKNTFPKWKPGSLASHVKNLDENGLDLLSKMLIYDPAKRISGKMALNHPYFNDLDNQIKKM
Sequence of CDK1/CyclinB (P14635 whole entry partner, species assumed): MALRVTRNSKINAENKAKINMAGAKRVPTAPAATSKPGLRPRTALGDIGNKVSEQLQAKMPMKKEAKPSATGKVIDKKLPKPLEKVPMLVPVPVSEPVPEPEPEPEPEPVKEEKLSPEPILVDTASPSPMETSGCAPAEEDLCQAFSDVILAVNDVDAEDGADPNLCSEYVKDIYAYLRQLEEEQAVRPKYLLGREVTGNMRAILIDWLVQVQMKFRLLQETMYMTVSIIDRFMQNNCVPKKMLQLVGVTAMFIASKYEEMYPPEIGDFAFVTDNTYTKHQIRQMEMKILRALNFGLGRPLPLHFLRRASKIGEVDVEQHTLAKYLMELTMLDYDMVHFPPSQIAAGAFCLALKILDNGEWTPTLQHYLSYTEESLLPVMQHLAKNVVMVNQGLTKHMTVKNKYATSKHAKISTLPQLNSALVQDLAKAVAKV
Description: as §1

[5] = target: CDK9/Cyclin T1 (Homo sapiens, UniProt P50750); assay: ADP-Glo kinase assay, CDK9; assay type: biochemical; conditions: 15.3 nM CDK9/Cyclin T1, 60 µM ATP (Km), 0.2 mg/mL PDKtide, 120 min; read-out: inhibitory activity (IC50, nM) CDK9
Sequence of CDK9/Cyclin T1 (P50750 whole entry, species assumed): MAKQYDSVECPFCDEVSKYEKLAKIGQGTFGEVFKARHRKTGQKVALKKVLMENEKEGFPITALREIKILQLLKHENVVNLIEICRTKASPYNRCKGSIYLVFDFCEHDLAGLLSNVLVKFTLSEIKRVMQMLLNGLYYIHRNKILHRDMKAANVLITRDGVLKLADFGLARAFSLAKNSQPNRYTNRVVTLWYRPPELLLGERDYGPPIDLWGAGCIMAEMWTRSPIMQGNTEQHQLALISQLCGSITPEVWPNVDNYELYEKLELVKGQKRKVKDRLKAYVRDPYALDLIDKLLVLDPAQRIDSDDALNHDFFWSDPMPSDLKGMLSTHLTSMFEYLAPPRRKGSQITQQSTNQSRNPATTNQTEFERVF
Sequence of CDK9/Cyclin T1 (O60563 whole entry partner, species assumed): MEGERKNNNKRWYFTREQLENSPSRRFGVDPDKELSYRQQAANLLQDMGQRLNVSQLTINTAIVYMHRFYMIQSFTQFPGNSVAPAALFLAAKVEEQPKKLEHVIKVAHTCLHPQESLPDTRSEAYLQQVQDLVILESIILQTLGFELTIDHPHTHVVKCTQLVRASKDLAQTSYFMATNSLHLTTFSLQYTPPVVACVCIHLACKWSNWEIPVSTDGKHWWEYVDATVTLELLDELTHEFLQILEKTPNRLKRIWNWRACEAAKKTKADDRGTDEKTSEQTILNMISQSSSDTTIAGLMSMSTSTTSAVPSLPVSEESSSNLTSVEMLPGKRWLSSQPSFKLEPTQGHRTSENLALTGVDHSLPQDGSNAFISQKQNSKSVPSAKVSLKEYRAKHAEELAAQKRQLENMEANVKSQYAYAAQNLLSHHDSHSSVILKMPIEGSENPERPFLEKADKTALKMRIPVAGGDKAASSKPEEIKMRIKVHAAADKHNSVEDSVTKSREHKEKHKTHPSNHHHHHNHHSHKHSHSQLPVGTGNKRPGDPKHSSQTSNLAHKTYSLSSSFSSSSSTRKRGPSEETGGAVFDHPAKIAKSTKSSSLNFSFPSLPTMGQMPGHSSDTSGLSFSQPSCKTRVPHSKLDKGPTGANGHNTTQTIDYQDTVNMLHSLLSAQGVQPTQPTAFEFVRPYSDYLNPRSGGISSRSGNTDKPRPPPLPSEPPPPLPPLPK
Description: as §1

[6] = target: CDK2/CyclinE1 (Homo sapiens, UniProt P24941); assay: ADP-Glo kinase assay, CDK2; assay type: biochemical; conditions: 1 nM CDK2/CyclinE1, 15 µM ATP (Km), 0.1 mg/mL histone H1, 60 min; read-out: inhibitory activity (IC50, nM) CDK2
Description: as §1

[7] = target: CDK6/CyclinD3 (Homo sapiens, UniProt Q00534); assay: ADP-Glo kinase assay, CDK6; assay type: biochemical; conditions: 15.7 nM CDK6/CyclinD3, 200 µM ATP (Km), 0.1 mg/mL histone H1, 60 min; read-out: inhibitory activity (IC50, nM) CDK 6
Sequence of CDK6/CyclinD3 (Q00534 whole entry, species assumed): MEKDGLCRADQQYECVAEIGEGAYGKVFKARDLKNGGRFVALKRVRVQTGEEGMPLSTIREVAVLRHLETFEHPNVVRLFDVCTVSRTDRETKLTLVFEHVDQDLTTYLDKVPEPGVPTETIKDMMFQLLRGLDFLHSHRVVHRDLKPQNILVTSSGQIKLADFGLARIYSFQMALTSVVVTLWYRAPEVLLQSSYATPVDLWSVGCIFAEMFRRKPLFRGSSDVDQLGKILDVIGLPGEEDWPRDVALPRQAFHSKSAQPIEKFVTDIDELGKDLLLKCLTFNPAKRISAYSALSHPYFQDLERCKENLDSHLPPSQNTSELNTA
Sequence of CDK6/CyclinD3 (P30281 whole entry partner, species assumed): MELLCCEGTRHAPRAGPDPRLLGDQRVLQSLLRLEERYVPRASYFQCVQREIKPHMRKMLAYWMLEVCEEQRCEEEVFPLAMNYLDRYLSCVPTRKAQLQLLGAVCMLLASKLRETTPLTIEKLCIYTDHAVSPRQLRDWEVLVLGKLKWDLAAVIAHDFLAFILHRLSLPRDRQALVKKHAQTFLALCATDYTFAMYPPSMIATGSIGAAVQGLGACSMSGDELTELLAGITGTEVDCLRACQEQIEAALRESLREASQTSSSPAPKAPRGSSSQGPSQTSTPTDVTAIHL
Description: as §1

Q: For `Cc1csc(CNc2ncc3c(n2)CN(C(=O)N[C@H](CN(C)C)c2ccccc2)[C@H](C)C3)n1` [Compound 1], which IC50 [1] is on record?
A: 10.2 nM

Q: With `Cc1csc([C@H](C)Nc2ncc3c(n2)CN(C(=O)N[C@H](CN(C)C)c2ccccc2)[C@H](C)C3)n1` [Compound 2-1, (R)-N-((S)-2-(Dimethylamino)-1-phenylethyl)-6-methyl-2-(((S)-1-(4-methylthiazol-2-yl)ethyl)amino)-5,8-dihydropyrido[3,4-d]pyrimidine-7(6H)-carboxamide] as the compound, how does the IC50 [2] read?
A: > 1000 nM

Q: And the IC50 [3]?
A: 0.96 nM

Q: What about the IC50 [4] of the same compound?
A: > 1000 nM

Q: And the IC50 [5]?
A: > 1000 nM

Q: And the IC50 [6]?
A: 711 nM

Q: What about the IC50 [1] of the same compound?
A: < 1.5 nM

Q: And the “inhibitory activity against OVCAR3 tumor cells compared with Janssen-01” value (shortened to “inhibitory activity … compared with Janssen-01”) [1]?
A: significantly better than that of the disclosed compound Janssen-01

Q: And the IC50 [7]?
A: > 1000 nM

Q: With `Cc1csc([C@@H](C)Nc2ncc3c(n2)CN(C(=O)N[C@H](CN(C)C)c2ccccc2)[C@H](C)C3)n1` [Compound 2-2, (R)-N-((S)-2-(Dimethylamino)-1-phenylethyl)-6-methyl-2-(((R)-1-(4-methylthiazol-2-yl)ethyl)amino)-5,8-dihydropyrido[3,4-d]pyrimidine-7(6H)-carboxamide] as the compound, how does the IC50 [1] read?
A: 66 nM

Q: `Cc1csc(C(C)Nc2ncc3c(n2)CN(C(=O)N[C@H](CN(C)C)c2ccccc2)[C@H](C)C3)n1` (stereo partly drawn) [Compound 2] was tested. Which IC50 [1] did it give?
A: 3.98 nM

Q: For `[2H]C([2H])([2H])N(C[C@@H](NC(=O)N1Cc2nc(N[C@@H](C)c3nc(C)cs3)ncc2C[C@H]1C)c1ccccc1)C([2H])([2H])[2H]` [Compound 3-1, (R)-N-((S)-2-(Bis(methyl-d3)amino)-1-phenylethyl)-6-methyl-2-(((S)-1-(4-methylthiazo 1-2-yl)ethyl)amino)-5,8-dihydropyrido[3,4-d]pyrimidine-7(6H)-carboxamide], which IC50 [1] is on record?
A: < 1.5 nM

Q: What about the “inhibitory activity … compared with Janssen-01” value [1] of the same compound?
A: significantly better than that of the disclosed compound Janssen-01

Q: For `[2H]C([2H])([2H])N(C[C@@H](NC(=O)N1Cc2nc(N[C@H](C)c3nc(C)cs3)ncc2C[C@H]1C)c1ccccc1)C([2H])([2H])[2H]` [Compound 3-2, (R)-N-((S)-2-(Bis(methyl-d3)amino)-1-phenylethyl)-6-methyl-2-(((R)-1-(4-methylthiazo 1-2-yl)ethyl)amino)-5,8-dihydropyrido[3,4-d]pyrimidine-7(6H)-carboxamide], which IC50 [1] is on record?
A: 101 nM

Q: Which IC50 [2] does the source give for `C[C@H](Nc1ncc2c(n1)CN(C(=O)N[C@H](CN(C)C)c1ccccc1)[C@H](C)C2)c1nc(C2CC2)cs1` [Compound 4, (R)-2-(((S)-1-(4-Cyclopropylthiazol-2-yl)ethyl)amino)-N-((S)-2-(dimethylamino)-1-phenylethyl)-6-methyl-5,8-dihydropyrido[3,4-d]pyrimidine-7(6H)-carboxamide] here?
A: > 1000 nM

Q: And the IC50 [3]?
A: 0.55 nM

Q: What about the IC50 [4] of the same compound?
A: > 1000 nM

Q: What about the IC50 [5] of the same compound?
A: > 1000 nM

Q: What about the IC50 [6] of the same compound?
A: 571 nM

Q: And the IC50 [1]?
A: < 1.5 nM

Q: What about the “inhibitory activity … compared with Janssen-01” value [1] of the same compound?
A: significantly better than that of the disclosed compound Janssen-01

Q: What about the IC50 [7] of the same compound?
A: > 1000 nM

Q: How did the IC50 [1] turn out when `C[C@@H]1Cc2cnc(N[C@H](C)c3nc(C4CC4)cs3)nc2CN1C(=O)N[C@H](CN(C)C)c1ccccc1` [Compound 5, (R)-2-(((R)-1-(4-Cyclopropylthiazol-2-yl)ethyl)amino)-N-((S)-2-(dimethylamino)-1-phenylethyl)-6-methyl-5,8-dihydropyrido[3,4-d]pyrimidine-7(6H)-carboxamide] was run?
A: 17.5 nM

Q: Which IC50 [1] does the source give for `C[C@@H]1Cc2cnc(NCc3nc(C4CC4)cs3)nc2CN1C(=O)N[C@H](CN(C)C)c1ccccc1` [Compound 6, (R)-2-(((4-Cyclopropylthiazol-2-yl)methyl)amino)-N-((S)-2-(dimethylamino)-1-phenylethyl)-6-methyl-5,8-dihydropyrido[3,4-d]pyrimidine-7(6H)-carboxamide] here?
A: 10.7 nM

Q: With `[2H]C([2H])([2H])N(C[C@@H](NC(=O)N1Cc2nc(NCc3nc(C)cs3)ncc2C[C@H]1C)c1ccccc1)C([2H])([2H])[2H]` [Compound 7] as the compound, how does the IC50 [1] read?
A: 11.2 nM

Q: Which IC50 [1] does the source give for `[2H]C([2H])([2H])N(C[C@@H](NC(=O)N1Cc2nc(NCc3nc(C4CC4)cs3)ncc2C[C@H]1C)c1ccccc1)C([2H])([2H])[2H]` [Compound 8, (R)-2-(((4-Cyclopropylthiazol-2-yl)methyl)amino)-N-((S)-2-(bis(methyl-d3)amino)-1-phenylethyl)-6-methyl-5,8-dihydropyrido[3,4-d]pyrimidine-7(6H)-carboxamide] here?
A: 9.89 nM

Q: What does the source list for `[2H]C([2H])([2H])N(C[C@@H](NC(=O)N1Cc2nc(N[C@@H](C)c3nc(C4CC4)cs3)ncc2C[C@H]1C)c1ccccc1)C([2H])([2H])[2H]` [Compound 9, (R)-2-(((S)-1-(4-Cyclopropylthiazol-2-yl)ethyl)amino)-N-((S)-2-(bis(methyl-d3)amino)-1-phenylethyl)-6-methyl-5,8-dihydropyrido[3,4-d]pyrimidine-7(6H)-carboxamide]?
A: IC50 [1]: < 1.5 nM; inhibitory activity against OVCAR3 tumor cells compared with Janssen-01 [1]: significantly better than that of the disclosed compound Janssen-01

Q: With `[2H]C([2H])([2H])N(C[C@@H](NC(=O)N1Cc2nc(N[C@H](C)c3nc(C4CC4)cs3)ncc2C[C@H]1C)c1ccccc1)C([2H])([2H])[2H]` [Compound 10, (R)-2-(((R)-1-(4-Cyclopropylthiazol-2-yl)ethyl)amino)-N-((S)-2-(bis(methyl-d3)amino)-1-phenylethyl)-6-methyl-5,8-dihydropyrido[3,4-d]pyrimidine-7(6H)-carboxamide] as the compound, how does the IC50 [1] read?
A: 19.3 nM

Q: Which IC50 [1] does the source give for `C[C@H](Nc1ncc2c(n1)CN(C(=O)N[C@H](CN(C)C)c1ccccc1)[C@H](C)C2)c1nc(CO)cs1` [Compound 11-1, (R)-N-((S)-2-(Dimethylamino)-1-phenylethyl)-2-(((S)-1-(4-(hydroxymethyl)thiazol-2-yl)ethyl)amino)-6-methyl-5,8-dihydropyrido[3,4-d]pyrimidine-7(6H)-carboxamide] here?
A: 1.89 nM

Q: And the “inhibitory activity … compared with Janssen-01” value [1]?
A: significantly better than that of the disclosed compound Janssen-01

Q: `C[C@@H]1Cc2cnc(N[C@H](C)c3nc(CO)cs3)nc2CN1C(=O)N[C@H](CN(C)C)c1ccccc1` [Compound 11-2, (R)-N-((S)-2-(Dimethylamino)-1-phenylethyl)-2-(((R)-1-(4-(hydroxymethyl)thiazol-2-yl)ethyl)amino)-6-methyl-5,8-dihydropyrido[3,4-d]pyrimidine-7(6H)-carboxamide] was tested. Which IC50 [1] did it give?
A: 190 nM

Q: With `C[C@@H]1Cc2cnc(NCc3ccn(C)n3)nc2CN1C(=O)[C@H]1CCN(C)C[C@@H]1c1ccccc1` [Janssen-01, reference compound] as the compound, how does the IC50 [1] read?
A: 22.2 nM
